The target in one assay is T1, GCH-1 (Homo sapiens, UniProt P30793).
T1 sequence (P30793 1-250): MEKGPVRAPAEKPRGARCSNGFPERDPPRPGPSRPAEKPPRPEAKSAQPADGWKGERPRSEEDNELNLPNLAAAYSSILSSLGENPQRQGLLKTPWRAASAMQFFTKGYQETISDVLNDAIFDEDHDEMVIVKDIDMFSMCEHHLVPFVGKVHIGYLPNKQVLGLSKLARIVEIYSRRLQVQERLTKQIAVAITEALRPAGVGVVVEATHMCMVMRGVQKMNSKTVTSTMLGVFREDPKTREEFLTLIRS
The assay can be described thus: LC/MS assay monitoring GTP consumption and neopterin formation by GCH-1. The assay is classed as biochemical. Conditions: Table 8, LC/MS assay; 2 μM GCH-1, 120 μM GTP, 1 hour at 37° C.; read-out: IC50. How it is done: This method is based on transformations known in the art (see, for example, Xie et al., J. Biol. Chem. 273(33):21091-21098, 1998). The LC-MS assay is carried out by the following steps.
(1) GCH-1 reaction • 2 μM GCH-1, 120 μM GTP, 1 hour incubation at 37° C. (2) Termination of GCH-1 reaction by de-phosphorylation • The reaction is stopped by the addition of excess alkaline phosphatase (2 units/sample) • 1 hour incubation at 37° C. (3) Oxidation of 7,8-dihydroneopterin to get a stabile final product • Oxidation with 0.1 M […] for 1 hour at 37° C. resulting in oxidation of 7,8-dihydroneopterin to neopterin • Termination of the oxidation reaction by addition of ascorbic acid
• Sample analysis using highly specific LC/MS methods to detect guanosine and neopterin in parallel • Data analysis and automated CRC fitting to get IC50 values
Turning to `COCCn1cnc2c(=O)[nH]c(N)nc21` [Compound (29)], the IC50 was over 400 µM.

As to `CCCSc1nc2c(=O)[nH]c(N)nc2n1C` [Compound (4)], the IC50 stood at 85 µM. In the case of `Cn1c(=S)[nH]c2nc(N)[nH]c(=O)c21` [Compound (13)], the IC50 was found to be 76 µM. As for `Nc1nc2[nH]c(SCC3CCOCC3)nc2c(=O)[nH]1` [(9)], the IC50 was 39 µM. For `Cn1ccc2c(=O)[nH]c(N)nc21` [Compound (38)], the IC50 is 193 µM. For the compound `Cc1cn(C)c2nc(N)[nH]c(=O)c12` [Compound (40)], the IC50 was over 400 µM.

Regarding `Nc1nc2[nH]c(N)nc2c(=O)[nH]1` [(31)], the IC50 came to 27 µM.

On to `CCCSc1nc2c(=O)[nH]c(N)nc2[nH]1` [Compound (3)], for which the IC50 amounted to 14 µM. `COCCSc1nc2c(=O)[nH]c(N)nc2[nH]1` [(6)]: the IC50 was 25 µM. Same read-out and setting: for `CCOc1ccccc1NC(=O)CSc1nc2c(O)nc(N)nc2[nH]1` [(56)] the value was 40 µM. Regarding `Nc1nc2[nH]ccc2c(=O)[nH]1` [Compound (37)], the IC50 was determined as 43 µM.

The same assay, now with this note: assay validation with known GCH-1 inhibitors; 2 μM GCH-1, 120 μM GTP, 1 hour at 37° C.; read-out: IC50 [μM] LC/MS assay.
`Nc1nc2[nH]c(S)nc2c(=O)[nH]1` [8-mercaptoguanine, reference compound]: the IC50 came out at 5 µM.
